Laboratory results taken from patent publication US7217710B2, “Substituted pyrazolopyrimidines” (SmithKline Beecham Corporation, priority 2001, dated 2007).

Target: T1, GST-TIE2 (intracellular domains of human TIE2) (Homo sapiens, UniProt Q02763)
T1 construct: made in house
Test: TIE-2 Enzyme Assay (TIE2-E2), LANCE method
Format: biochemical
Details: for IC50: read-out: TIE2 PIC50 TIE2-E2 assay
Excerpt: TIE-2 Enzyme Assay (TIE2-E2
The TIE-2 enzyme assay uses the LANCE method (Wallac) and GST-TIE2, baculovirus-expressed recombinant constructs of the intracellular domains of human TIE2 (amino acids 762–1104, GenBank Accession # L06139) tagged by GST). The method measures the ability of the purified enzymes to catalyse the transfer of the γ-phosphate from ATP onto tyrosine residues in a biotinylated synthetic peptide, D1–15 (biotin-C6-LEARLVAYEGWVAGKKKamide). This peptide phosphorylation is detected using the following procedure: for enzyme preactivation, GST-TIE2 is incubated for 2 hours at room temperature with 80 μM ATP, 10 mM MgCl2, 0.1 mg/ml BSA, 0.01% Tween 20 and 1 mM DTT in 100 mM HEPES buffer (pH7.4). 5 nM preactivated GST-TIE2 is incubated for 2 hours at room temperature in 96 well plates with 1 uM D1–15 peptide, 80 uM ATP, 10 mM MgCl2, 0.1 mg/ml BSA, 0.01% Tween 20 and titrated test compound (diluted from a 10 mM stock in DMSO, final DMSO concentration is 2.4%) in 100 mM HEPES (pH7.4). The reaction is stopped by the addition of EDTA (final concentration 45 mM). Streptavidin linked-APC (allophycocyanin, PerkinElmer) and europium-labeled anti-phosphotyrosine antibody (PerkinElmer) are then added at the final concentration of 8 nM and 1 nM, respectively. The APC signal is measured using an Wallac Multilabel 1420 counter. (Wallac Berthold Japan). The percent inhibition of activity is calculated relative to blank control wells. The concentration of test compound that inhibits 50% of activity (IC50) is interpolated using nonlinear regression (Levernberg-Marquardt) and the equation, y=Vmax (1−x/(K+x))+Y2, where “K” is equal to the IC50. The IC50 values are converted to pIC50 values, i.e., −log IC50 in Molar concentration.

T1 sequence (Q02763 762-1104): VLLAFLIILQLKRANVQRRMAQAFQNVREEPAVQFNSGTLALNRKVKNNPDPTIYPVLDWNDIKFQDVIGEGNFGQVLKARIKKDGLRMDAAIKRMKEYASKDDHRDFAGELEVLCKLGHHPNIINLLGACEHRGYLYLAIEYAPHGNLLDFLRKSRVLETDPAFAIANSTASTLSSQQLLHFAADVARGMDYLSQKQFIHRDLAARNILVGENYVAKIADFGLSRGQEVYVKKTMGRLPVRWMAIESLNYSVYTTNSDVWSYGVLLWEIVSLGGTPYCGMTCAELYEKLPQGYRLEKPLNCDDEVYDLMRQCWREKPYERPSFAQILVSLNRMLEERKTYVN

## CN1CCN(CCCNc2ncc3c(-c4ccc(NC(=O)Nc5cc(C(F)(F)F)ccc5F)c(F)c4)nn(C)c3n2)CC1 [Example 131]
  IC50: ≤ 39.8 nM

## Cn1nc(-c2ccc(NS(=O)(=O)c3cccc(Cl)c3Cl)cc2)c2cnc(NCCCCN)nc21 [Example 120, 2,3-Dichloro-N-{4-[1-methyl-6-(4-amino-butylamino)-1H-pyrazolo[3,4-d]pyrimidin-3-yl]-phenyl}-benzenesulfonamide]
  IC50: 1000 to 10000 nM

## CC1CCCCN1CCCNc1ncc2c(-c3ccc(NS(=O)(=O)c4cccc(Cl)c4Cl)cc3)nn(C)c2n1 (stereo not shown) [Example 104, 2,3-Dichloro-N-(4-{1-methyl-6-[3-(2-methyl-piperidin-1-yl)-propylamino]-1H-pyrazolo[3,4-d]pyrimidin-3-yl)-phenyl}-benzenesulfonamide]
  IC50: > 10000 nM

## CC1CCCCN1CCCNc1ncc2c(-c3ccc(NC(=O)Nc4cc(C(F)(F)F)ccc4F)c(F)c3)nn(C)c2n1 (stereo not shown) [Example 128]
  IC50: ≤ 39.8 nM

## CN(C)CCCNc1ncc2c(-c3ccc(NC(=O)Nc4cc(C(F)(F)F)ccc4F)cc3)nn(C)c2n1 [Example 87, 1-(2-Fluoro-5-trifluoromethyl-phenyl)-3-{4-[1-methyl-6-(3-dimethylamino-propylamino)-1H-pyrazolo[3,4-d]pyrimidin-3-yl]-phenyl} urea]
  IC50: ≤ 39.8 nM

## CN1CCC(N(C)c2ncnc3[nH]nc(-c4ccc(NC(=O)Nc5cc(C(F)(F)F)ccc5F)cc4)c23)CC1 [Example 65, 1-(2-fluoro-5-trifluoromethyl-phenyl)-3-(4-[methyl-(1-methyl-piperidin-4-ylamino]-1H-pyrazolo[3,4-d]pyrimidin-3-yl]-phenyl}-urea]
  TIE2 PIC50 TIE2-E2 assay: + (+ = PIC50 = 5.00 to less than 6.00)

## CCNc1ncc2c(-c3ccc(NC(=O)Nc4ccc(C(F)(F)F)cc4F)cc3)nn(C)c2n1 [Example 162]
  IC50: 1000 to 10000 nM

## CC(=O)c1cccc(NC(=O)Nc2ccc(-c3nn(C)c4nc(NCCN5CCOCC5)ncc34)cc2F)c1 [Example 54, 1-(3-Acetyl-phenyl)-3-{2-fluoro-4-[1-methyl-6-(2-morpholin-4-yl-ethylamino)-1H-pyrazolo[3,4-d]pyrimidin-3-yl]-phenyl}-urea]
  IC50: 100 to 1000 nM

## Cn1nc(-c2ccc(NC(=O)Nc3cc(C(F)(F)F)ccc3F)cc2)c2cnc(NCc3cccnc3)nc21 [Example 144, 1-(2-Fluoro-5-trifluoromethyl-phenyl)-3-{4-[(1-methyl-6-(pyridin-3-ylmethyl)-amino)-1H-pyrazolo[3,4-d]pyrimidin-3-yl]-phenyl} urea]
  IC50: 100 to 1000 nM

## Cn1nc(-c2ccc(NC(=O)Nc3cc(C(F)(F)F)ccc3F)cc2)c2cnc(NCCCN)nc21 [Example 94, 1-(2-Fluoro-5-trifluoromethyl-phenyl)-3-{4-[1-methyl-6-(3-amino-propylamino)-1H-pyrazolo[3,4-d]pyrimidin-3-yl]-phenyl} urea]
  IC50: 39.8 to 100 nM

## Cn1nc(-c2ccc(NC(=O)Nc3cc(C(F)(F)F)ccc3F)cc2)c2cnc(Nc3cccc(Cl)c3)nc21 [Example 63]
  TIE2 PIC50 TIE2-E2 assay: ++ (++ = PIC50 = 6.00 to less than 7.00)

## Cn1nc(-c2ccc(NC(=O)Nc3cc(C(F)(F)F)ccc3F)cc2)c2cnc(NCc3ccccc3)nc21 [Example 62, 1-(2-fluoro-5-trifluoromethyl-phenyl)-3-{4-[1-methyl-6-(benzylamino)-1H-pyrazolo[3,4-d]pyrimidin-3-yl]-phenyl}-urea]
  IC50: 1000 to 10000 nM

## CCN(CC)CCCNc1ncc2c(-c3ccc(NC(=O)Nc4cc(C(F)(F)F)ccc4F)c(F)c3)nn(C)c2n1 [Example 129]
  IC50: ≤ 39.8 nM

## CN(C)CCCNc1ncc2c(-c3ccc(NS(=O)(=O)c4cccc(Cl)c4Cl)cc3)nn(C)c2n1 [Example 106, 2,3-Dichloro-N-{4-[1-methyl-6-(3-dimethylamino-propylamino)-1H-pyrazolo[3,4-d]pyrimidin-3-yl]-phenyl}-benzenesulfonamide]
  IC50: > 10000 nM

## 2,3-Dichloro-N-{4-[1-methyl-6-(3-diethylamino -propylamino)-1H-pyrazolo[3,4-d]pyrimidin-3-yl]-phenyl}-benzenesulfonamide [Example 107]
  TIE2 PIC50 TIE2-E2 assay: −− (−− = PIC50 less than 5.00)

## Cc1cc(-c2nn(C)c3nc(NCCN4CCOCC4)ncc23)ccc1NC(=O)Nc1cccc(C(F)(F)F)c1 [Example 48, 1-{2-Methyl-4-[methyl-(2-morpholin-4-yl-ethylamino)-1H -pyrazolo[3,4-d]pyrimidin-3-yl]-phenyl}-3-(3-trifluoromethyl-phenyl)-urea]
  TIE2 PIC50 TIE2-E2 assay: ++ (++ = PIC50 = 6.00 to less than 7.00)

## CN1CCCC1CCNc1ncc2c(-c3ccc(NC(=O)Nc4cc(C(F)(F)F)ccc4F)c(F)c3)nn(C)c2n1 (stereo not shown) [Example 130]
  IC50: ≤ 39.8 nM

## CN1CCCC1CCNc1ncc2c(-c3ccc(NS(=O)(=O)c4cccc(Cl)c4Cl)cc3)nn(C)c2n1 (stereo not shown) [Example 108, 2,3-Dichloro-N-(4-{1-methyl-6-[2-(1-methyl-pyrrolidin-2-yl)-ethylamino]-1H-pyrazolo[3,4-d]pyrimidin-3-yl]-phenyl}-benzenesulfonamide]
  IC50: > 10000 nM

## Cn1nc(-c2ccc(NC(=O)Nc3cc(C(F)(F)F)ccc3F)cc2)c2cnc(NCCCCN)nc21 [Example 95, 1-(2-Fluoro-5-trifluoromethyl-phenyl)-3-{4-[1-methyl-6-(4-amino-butylamino)-1H-pyrazolo[3,4-d]pyrimidin-3-yl]-phenyl} urea]
  IC50: ≤ 39.8 nM

## Cn1nc(-c2ccc(NC(=O)Nc3cc(C(F)(F)F)ccc3F)c(F)c2)c2cnc(NCCCN3CCOCC3)nc21 [Example 127]
  IC50: ≤ 39.8 nM

## Cn1nc(-c2ccc(NC(=O)Nc3cc(C(F)(F)F)ccc3F)cc2)c2cnc(NCCCCNC(=N)N)nc21 [Example 99, 1-(2-Fluoro-5-trifluoromethyl-phenyl)-3-{4-[1-methyl-6-(4-guanidino-butylamino)-1H-pyrazolo[3,4-d]pyrimidin-3-yl]-phenyl} urea]
  IC50: 39.8 to 100 nM

## Cn1nc(-c2ccc(NC(=O)Nc3cc(C(F)(F)F)ccc3F)cc2)c2cnc(NCCCN3CCCC3)nc21 [Example 86]
  IC50: ≤ 39.8 nM

## Cn1nc(-c2ccc(NS(=O)(=O)c3cccc(Cl)c3Cl)cc2)c2cnc(NC(CO)CO)nc21 [Example 118, 2,3-Dichloro-N-{4-[1-methyl-6-(2-hydroxy-1-hydroxymethyl-ethylamino)-1H-pyrazolo[3,4-d]pyrimidin-3-yl]-phenyl}-benzenesulfonamide]
  IC50: > 10000 nM

## Cc1cc(-c2nn(C)c3nc(NCCN4CCOCC4)ncc23)ccc1NC(=O)Nc1cc(C(F)(F)F)cc(C(F)(F)F)c1 [Example 47, 1-(Bis-trifluoromethyl-phenyl)-3-{methyl-[methyl-(2-morpholin-4-yl-methylamino)-1H-pyrazolo[3,4-d]pyrimidin-3-yl]-phenyl}-urea]
  IC50: 100 to 1000 nM

## Cn1nc(-c2ccc(NS(=O)(=O)c3cccc(Cl)c3Cl)cc2)c2cnc(NCCCN3CCOCC3)nc21 [Example 103, 2,3-Dichloro-N-{4-[1-methyl-6-(3-morpholin-4-yl-propylamino)-1H-pyrazolo[3,4-d]pyrimidin-3-yl)-phenyl}-benzenesulfonamide]
  IC50: > 10000 nM

## Cc1cc(-c2nn(C)c3nc(NCCN4CCOCC4)ncc23)ccc1NC(=S)Nc1cccc(C(F)(F)F)c1 [Example 58, 1-{2-Methyl-4-[1-methyl-6-(2-morpholin-4-yl-ethylamino)-1H -pyrazolo[3,4-d]-pyrimidin-3-yl]-phenyl}-3-(3-trifluoromethyl-phenyl)-thiourea]
  IC50: 1000 to 10000 nM

## Cn1nc(-c2ccc(NC(=O)Nc3cc(C(F)(F)F)ccc3F)cc2)c2cnc(NCCc3ccccc3)nc21 [Example 81, 1-(2-Fluoro-5-trifluoromethyl-phenyl)-3-{4-[(1-methyl-6-phenethylamino)-1H-pyrazolo[3,4-d]pyrimidin-3-yl]-phenyl} urea]
  IC50: 1000 to 10000 nM

## CN1CCC(Nc2ncc3c(-c4ccc(NS(=O)(=O)c5cccc(Cl)c5Cl)cc4)nn(C)c3n2)CC1 [Example 68]
  IC50: 100 to 1000 nM

## Cn1nc(-c2ccc(NC(=O)Nc3cc(C(F)(F)F)ccc3F)cc2)c2cnc(NCCOC(=O)Nc3cc(C(F)(F)F)ccc3F)nc21 [Example 30, (Fluoro-trifluoromethyl-phenyl)-carbamic acid 2-(3-{4-[3-(fluoro-trifluoromethyl-phenyl)-ureido]-phenyl}-1-methyl-1H-pyrazolo[3,4-d]pyrimidin-6-ylamino)-ethyl ester]
  IC50: 1000 to 10000 nM

## Cn1nc(-c2ccc(NS(=O)(=O)c3cccc(Cl)c3Cl)cc2)c2cnc(NCCCCN3CCCC3)nc21 [Example 110, 2,3-Dichloro-N-{4-[1-methyl-6-(4-pyrrolidin 1-yl-butylamino)-1H-pyrazolo[3,4-d]pyrimidin-3-yl]-phenyl}-benzenesulfonamide]
  IC50: > 10000 nM

## Cn1nc(-c2ccc(NS(=O)(=O)c3cccc(Cl)c3Cl)cc2)c2cnc(NCCCN3CCCC3)nc21 [Example 105, 2,3-Dichloro-N-{4-[1-methyl-6-(3-pyrrolidin-1-yl-propylamino)-1H-pyrazolo[3,4-d]pyrimidin-3-yl]-phenyl}-benzenesulfonamide]
  IC50: > 10000 nM
